Laboratory results: ChEMBL document CHEMBL4507313, “Data for DCP probe BAY-179” (2021)

What was measured:
[1] = biological target: T1, 5-hydroxytryptamine receptor 2B (Homo sapiens, UniProt P41595); assay: GPCRScan assay: inhibition of 5-HT2B; set-up: radioligand conc. used [nm] 1.0 – 2.0, parental cells stable HEK
[2] = biological target: T2, Sigma intracellular receptor 2 (Homo sapiens, UniProt Q5BJF2); assay: GPCRScan assay: inhibition of Sigma 2; set-up: radioligand conc. used [nm] 5.0, parental cells HEKT
T2 sequence (Q5BJF2 whole entry): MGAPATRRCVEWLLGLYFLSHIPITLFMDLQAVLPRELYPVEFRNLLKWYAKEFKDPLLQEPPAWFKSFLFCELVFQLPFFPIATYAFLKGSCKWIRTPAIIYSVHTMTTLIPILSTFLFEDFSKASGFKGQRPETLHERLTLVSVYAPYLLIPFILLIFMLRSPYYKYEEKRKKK

[3] = biological target: T3, Sigma non-opioid intracellular receptor 1 (Homo sapiens, UniProt Q99720); assay: GPCRScan assay: inhibition of Sigma 1; set-up: radioligand conc. used [nm] 4.0 – 5.0, parental cells HEKT
T3 sequence (Q99720 whole entry): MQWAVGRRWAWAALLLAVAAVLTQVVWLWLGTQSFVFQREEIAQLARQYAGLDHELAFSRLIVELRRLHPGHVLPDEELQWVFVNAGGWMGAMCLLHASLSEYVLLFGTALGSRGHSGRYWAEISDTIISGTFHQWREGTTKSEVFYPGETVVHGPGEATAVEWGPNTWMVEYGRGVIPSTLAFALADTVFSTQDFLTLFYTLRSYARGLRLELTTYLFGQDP

[4] = biological target: 5-hydroxytryptamine receptor 1A (Homo sapiens) (UniProt P08908); details: Compound concentration 10.0 uM
[5] = biological target: 5-hydroxytryptamine receptor 1B (Homo sapiens) (UniProt P28222); details: Compound concentration 10.0 uM
[6] = biological target: 5-hydroxytryptamine receptor 1D (Homo sapiens) (UniProt P28221); details: Compound concentration 10.0 uM
[7] = biological target: 5-hydroxytryptamine receptor 2A (Homo sapiens) (UniProt P28223); details: Compound concentration 10.0 uM
Chain of 5-hydroxytryptamine receptor 2A (Homo sapiens) (P28223 whole entry): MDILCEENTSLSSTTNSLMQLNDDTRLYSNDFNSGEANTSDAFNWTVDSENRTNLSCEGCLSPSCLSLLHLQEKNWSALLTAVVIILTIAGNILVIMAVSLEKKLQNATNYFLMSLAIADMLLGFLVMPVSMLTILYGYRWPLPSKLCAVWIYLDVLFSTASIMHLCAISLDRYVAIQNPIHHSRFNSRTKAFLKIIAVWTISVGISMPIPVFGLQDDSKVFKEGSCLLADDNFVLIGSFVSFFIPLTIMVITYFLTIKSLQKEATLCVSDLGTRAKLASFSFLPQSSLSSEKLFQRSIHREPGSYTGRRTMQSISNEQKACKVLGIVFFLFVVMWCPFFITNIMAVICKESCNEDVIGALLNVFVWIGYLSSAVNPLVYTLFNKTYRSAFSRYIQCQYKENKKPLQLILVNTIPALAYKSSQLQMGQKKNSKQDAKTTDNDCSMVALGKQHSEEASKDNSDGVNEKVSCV

[8] = biological target: T1, 5-hydroxytryptamine receptor 2B; details: Compound concentration 10.0 uM
[9] = biological target: 5-hydroxytryptamine receptor 2C (Homo sapiens) (UniProt P28335); details: Compound concentration 10.0 uM
[10] = biological target: 5-hydroxytryptamine receptor 3A (Homo sapiens) (UniProt P46098); details: Compound concentration 10.0 uM
Chain of 5-hydroxytryptamine receptor 3A (Homo sapiens) (P46098 whole entry): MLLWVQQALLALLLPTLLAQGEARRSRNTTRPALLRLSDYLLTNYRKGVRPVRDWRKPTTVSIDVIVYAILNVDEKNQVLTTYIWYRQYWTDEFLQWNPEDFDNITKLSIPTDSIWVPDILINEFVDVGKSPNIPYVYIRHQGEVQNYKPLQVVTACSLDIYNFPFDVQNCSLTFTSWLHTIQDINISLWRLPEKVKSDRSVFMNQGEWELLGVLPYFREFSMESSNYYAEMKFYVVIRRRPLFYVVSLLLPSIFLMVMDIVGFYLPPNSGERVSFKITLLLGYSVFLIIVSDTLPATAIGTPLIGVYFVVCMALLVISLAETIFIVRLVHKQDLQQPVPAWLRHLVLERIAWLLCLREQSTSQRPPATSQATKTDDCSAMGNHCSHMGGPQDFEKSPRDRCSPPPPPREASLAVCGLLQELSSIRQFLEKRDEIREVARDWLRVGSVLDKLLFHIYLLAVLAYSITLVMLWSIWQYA

[11] = biological target: 5-hydroxytryptamine receptor 5A (Homo sapiens) (UniProt P47898); details: Compound concentration 10.0 uM
[12] = biological target: T4, 5-hydroxytryptamine receptor 6 (Homo sapiens, UniProt P50406); details: Compound concentration 10.0 uM
T4 sequence (P50406 whole entry): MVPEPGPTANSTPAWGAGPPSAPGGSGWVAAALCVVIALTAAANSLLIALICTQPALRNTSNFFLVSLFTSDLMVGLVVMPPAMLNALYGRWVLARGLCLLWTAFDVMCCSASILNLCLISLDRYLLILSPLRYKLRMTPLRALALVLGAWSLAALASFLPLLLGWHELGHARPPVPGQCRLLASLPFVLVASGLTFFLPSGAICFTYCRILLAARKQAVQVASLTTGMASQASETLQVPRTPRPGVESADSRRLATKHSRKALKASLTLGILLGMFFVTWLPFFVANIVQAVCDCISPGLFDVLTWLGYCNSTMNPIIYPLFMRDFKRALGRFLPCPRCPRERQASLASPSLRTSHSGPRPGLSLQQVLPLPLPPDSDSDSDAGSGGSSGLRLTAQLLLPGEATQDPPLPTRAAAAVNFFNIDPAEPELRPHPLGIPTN

[13] = biological target: 5-hydroxytryptamine receptor 7 (Homo sapiens) (UniProt P34969); details: Compound concentration 10.0 uM
[14] = biological target: D(2) dopamine receptor (Homo sapiens) (UniProt P14416); details: Compound concentration 10.0 uM
Chain of D(2) dopamine receptor (Homo sapiens) (P14416 whole entry): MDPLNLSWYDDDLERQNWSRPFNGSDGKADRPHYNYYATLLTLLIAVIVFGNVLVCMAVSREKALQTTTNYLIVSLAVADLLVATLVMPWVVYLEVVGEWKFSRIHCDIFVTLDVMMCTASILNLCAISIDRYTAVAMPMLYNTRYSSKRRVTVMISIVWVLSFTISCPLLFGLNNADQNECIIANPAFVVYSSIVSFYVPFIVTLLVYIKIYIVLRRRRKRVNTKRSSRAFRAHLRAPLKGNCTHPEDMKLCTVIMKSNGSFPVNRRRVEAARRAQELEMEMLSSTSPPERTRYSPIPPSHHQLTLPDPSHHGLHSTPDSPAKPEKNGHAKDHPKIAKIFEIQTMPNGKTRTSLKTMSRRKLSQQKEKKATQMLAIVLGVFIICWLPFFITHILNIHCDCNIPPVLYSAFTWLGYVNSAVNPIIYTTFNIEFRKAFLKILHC

[15] = biological target: D(3) dopamine receptor (Homo sapiens) (UniProt P35462); details: Compound concentration 10.0 uM
[16] = biological target: D(4) dopamine receptor (Homo sapiens) (UniProt P21917); details: Compound concentration 10.0 uM
[17] = biological target: D(1B) dopamine receptor (Homo sapiens) (UniProt P21918); details: Compound concentration 10.0 uM
[18] = biological target: Sodium-dependent serotonin transporter (Homo sapiens) (UniProt P31645); details: Compound concentration 10.0 uM
[19] = biological target: Sodium-dependent noradrenaline transporter (Homo sapiens) (UniProt P23975); details: Compound concentration 10.0 uM
[20] = biological target: Sodium-dependent dopamine transporter (Homo sapiens) (UniProt Q01959); details: Compound concentration 10.0 uM
[21] = biological target: Mu-type opioid receptor (Homo sapiens) (UniProt P35372); details: Compound concentration 10.0 uM
[22] = biological target: Delta-type opioid receptor (Homo sapiens) (UniProt P41143); details: Compound concentration 10.0 uM
Chain of Delta-type opioid receptor (Homo sapiens) (P41143 whole entry): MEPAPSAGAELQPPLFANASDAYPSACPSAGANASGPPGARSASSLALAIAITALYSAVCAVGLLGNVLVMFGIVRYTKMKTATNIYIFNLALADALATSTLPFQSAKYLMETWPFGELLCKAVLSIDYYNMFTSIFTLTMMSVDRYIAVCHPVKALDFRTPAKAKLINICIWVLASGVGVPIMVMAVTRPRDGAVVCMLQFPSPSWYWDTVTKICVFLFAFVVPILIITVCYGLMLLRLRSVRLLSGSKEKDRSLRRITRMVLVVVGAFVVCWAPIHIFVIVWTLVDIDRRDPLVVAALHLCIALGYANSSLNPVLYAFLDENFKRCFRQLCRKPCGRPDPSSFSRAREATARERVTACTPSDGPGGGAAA

[23] = biological target: Kappa-type opioid receptor (Homo sapiens) (UniProt P41145); details: Compound concentration 10.0 uM
[24] = biological target: Histamine H1 receptor (Homo sapiens) (UniProt P35367); details: Compound concentration 10.0 uM
Chain of Histamine H1 receptor (Homo sapiens) (P35367 whole entry): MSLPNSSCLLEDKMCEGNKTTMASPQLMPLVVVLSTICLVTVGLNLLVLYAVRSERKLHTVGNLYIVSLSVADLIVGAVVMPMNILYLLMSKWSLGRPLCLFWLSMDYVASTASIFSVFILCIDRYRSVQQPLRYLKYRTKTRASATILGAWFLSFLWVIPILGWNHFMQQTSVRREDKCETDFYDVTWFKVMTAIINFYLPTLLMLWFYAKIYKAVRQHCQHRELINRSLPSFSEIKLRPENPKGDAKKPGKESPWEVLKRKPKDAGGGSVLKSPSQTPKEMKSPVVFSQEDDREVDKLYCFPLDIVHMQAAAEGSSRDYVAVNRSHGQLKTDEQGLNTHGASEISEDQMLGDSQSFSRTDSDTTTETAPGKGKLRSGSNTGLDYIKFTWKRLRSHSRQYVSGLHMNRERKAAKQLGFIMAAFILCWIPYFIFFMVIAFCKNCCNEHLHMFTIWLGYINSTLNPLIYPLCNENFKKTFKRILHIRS

[25] = biological target: Histamine H2 receptor (Homo sapiens) (UniProt P25021); details: Compound concentration 10.0 uM
[26] = biological target: Histamine H3 receptor (Homo sapiens) (UniProt Q9Y5N1); details: Compound concentration 10.0 uM
[27] = biological target: Histamine H4 receptor (Homo sapiens) (UniProt Q9H3N8); details: Compound concentration 10.0 uM
[28] = biological target: Alpha-1A adrenergic receptor (Homo sapiens) (UniProt P35348); details: Compound concentration 10.0 uM
[29] = biological target: Alpha-1B adrenergic receptor (Homo sapiens) (UniProt P35368); details: Compound concentration 10.0 uM
[30] = biological target: Alpha-2A adrenergic receptor (Homo sapiens) (UniProt P08913); details: Compound concentration 10.0 uM
Chain of Alpha-2A adrenergic receptor (Homo sapiens) (P08913 whole entry): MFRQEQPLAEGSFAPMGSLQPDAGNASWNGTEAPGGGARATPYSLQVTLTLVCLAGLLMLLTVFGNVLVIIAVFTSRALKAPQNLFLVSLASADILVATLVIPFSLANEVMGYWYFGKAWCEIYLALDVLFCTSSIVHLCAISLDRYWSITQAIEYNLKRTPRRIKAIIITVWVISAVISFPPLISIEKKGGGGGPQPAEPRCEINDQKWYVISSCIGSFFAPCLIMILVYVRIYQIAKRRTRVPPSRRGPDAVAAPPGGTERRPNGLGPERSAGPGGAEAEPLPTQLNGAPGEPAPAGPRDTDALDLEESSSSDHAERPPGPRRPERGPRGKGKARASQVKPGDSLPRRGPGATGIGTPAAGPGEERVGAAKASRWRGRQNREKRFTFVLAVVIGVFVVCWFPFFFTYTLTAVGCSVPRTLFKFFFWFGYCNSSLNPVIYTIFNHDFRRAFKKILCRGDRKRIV

[31] = biological target: Alpha-2B adrenergic receptor (Homo sapiens) (UniProt P18089); details: Compound concentration 10.0 uM
Chain of Alpha-2B adrenergic receptor (Homo sapiens) (P18089 whole entry): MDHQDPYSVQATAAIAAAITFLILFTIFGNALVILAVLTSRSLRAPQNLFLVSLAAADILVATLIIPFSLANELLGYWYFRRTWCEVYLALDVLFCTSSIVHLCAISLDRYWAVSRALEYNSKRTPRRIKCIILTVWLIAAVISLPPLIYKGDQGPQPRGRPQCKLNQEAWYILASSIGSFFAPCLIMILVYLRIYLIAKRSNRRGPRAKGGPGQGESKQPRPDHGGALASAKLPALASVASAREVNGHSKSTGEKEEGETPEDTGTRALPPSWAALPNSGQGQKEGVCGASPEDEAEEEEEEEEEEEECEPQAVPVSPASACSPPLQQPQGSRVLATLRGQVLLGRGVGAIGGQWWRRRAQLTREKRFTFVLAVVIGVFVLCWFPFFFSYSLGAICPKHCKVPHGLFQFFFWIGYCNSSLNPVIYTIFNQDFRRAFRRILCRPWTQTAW

[32] = biological target: Alpha-2C adrenergic receptor (Homo sapiens) (UniProt P18825); details: Compound concentration 10.0 uM
[33] = biological target: Beta-1 adrenergic receptor (Homo sapiens) (UniProt P08588); details: Compound concentration 10.0 uM
[34] = biological target: Beta-2 adrenergic receptor (Homo sapiens) (UniProt P07550); details: Compound concentration 10.0 uM
Chain of Beta-2 adrenergic receptor (Homo sapiens) (P07550 whole entry, looked up): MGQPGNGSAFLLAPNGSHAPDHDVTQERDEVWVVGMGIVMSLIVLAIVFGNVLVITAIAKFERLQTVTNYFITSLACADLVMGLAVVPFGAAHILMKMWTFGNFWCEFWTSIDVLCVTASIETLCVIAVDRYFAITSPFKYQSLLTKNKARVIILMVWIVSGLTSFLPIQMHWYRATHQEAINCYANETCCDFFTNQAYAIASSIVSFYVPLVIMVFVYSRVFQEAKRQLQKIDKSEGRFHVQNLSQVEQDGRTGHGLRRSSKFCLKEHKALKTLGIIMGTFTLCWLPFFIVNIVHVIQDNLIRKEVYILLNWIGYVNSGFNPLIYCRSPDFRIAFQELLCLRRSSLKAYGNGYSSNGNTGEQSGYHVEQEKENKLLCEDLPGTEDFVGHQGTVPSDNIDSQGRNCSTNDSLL

[35] = biological target: Muscarinic acetylcholine receptor M1 (Homo sapiens) (UniProt P11229); details: Compound concentration 10.0 uM
[36] = biological target: Muscarinic acetylcholine receptor M2 (Homo sapiens) (UniProt P08172); details: Compound concentration 10.0 uM
[37] = biological target: Muscarinic acetylcholine receptor M3 (Homo sapiens) (UniProt P20309); details: Compound concentration 10.0 uM
[38] = biological target: Muscarinic acetylcholine receptor M4 (Homo sapiens) (UniProt P08173); details: Compound concentration 10.0 uM
[39] = biological target: Muscarinic acetylcholine receptor M5 (Homo sapiens) (UniProt P08912); details: Compound concentration 10.0 uM
[40] = biological target: Beta-3 adrenergic receptor (Homo sapiens) (UniProt P13945); details: Compound concentration 10.0 uM
[41] = biological target: T5, GABA-A receptor; anion channel (Rattus norvegicus) (UniProt O09028+P15431+P18506+P18508+P19969+P20236+P23574+P23576+P28471+P28473+P30191+P62813+P63079+P63138+Q91ZM7+Q9ES14); details: Compound concentration 10.0 uM
Rattus norvegicus = species on record: Rattus norvegicus; details: Compound concentration 10.0 uM
[42] = biological target: Alpha-1D adrenergic receptor (Homo sapiens) (UniProt P25100); details: Compound concentration 10.0 uM
[43] = biological target: T2, Sigma intracellular receptor 2; details: Compound concentration 10.0 uM
[44] = biological target: T3, Sigma non-opioid intracellular receptor 1; details: Compound concentration 10.0 uM
[45] = biological target: 5-hydroxytryptamine receptor 3A (Homo sapiens, UniProt P46098); assay: GPCRScan assay: inhibition of 5-HT3; set-up: radioligand conc. used [nm] 1.0 – 2.0, parental cells HEKT
Chain of 5-hydroxytryptamine receptor 3A (P46098 whole entry): as the sequence (P46098 whole entry) above

[46] = biological target: T4, 5-hydroxytryptamine receptor 6; assay: GPCRScan assay: inhibition of 5-HT6; set-up: radioligand conc. used [nm] 2.0 – 4.0, parental cells stable HEK
[47] = biological target: Alpha-2C adrenergic receptor (Homo sapiens, UniProt P18825); assay: GPCRScan assay: inhibition of Alpha2C; set-up: radioligand conc. used [nm] 0.5 – 1.0, parental cells stable MDCK
[48] = biological target: Muscarinic acetylcholine receptor M2 (Homo sapiens, UniProt P08172); assay: GPCRScan assay: inhibition of M2; set-up: radioligand conc. used [nm] 0.2 – 1.0, parental cells stable CHO
[49] = BXF135 2 cell line Proliferation assay; assay type: functional, Homo sapiens; details: Cell line Patient derived
MKN-1 = assay: MKN1 cell line Proliferation assay; assay type: functional, Homo sapiens
[50] = BXF121 8 cell line Proliferation assay; assay type: functional, Homo sapiens; details: Cell line Patient derived
LS174T = assay: LS174T cell line Proliferation assay; assay type: functional, Homo sapiens
[51] = GXF25 1 cell line Proliferation assay; assay type: functional, Homo sapiens; details: Cell line Patient derived
[52] = LXFA62 9 cell line Proliferation assay; assay type: functional, Homo sapiens, LXF 629L; details: Cell line Patient derived
BG-1 cell line = assay: BG1 cell line Proliferation assay; assay type: functional, Homo sapiens
Caco-2 = assay: Caco-2 cell line Proliferation assay; assay type: functional, Homo sapiens
SK-MEL-28 = assay: SK- MEL-28 cell line Proliferation assay; assay type: functional, Homo sapiens
RKO = assay: RKO cell line Proliferation assay; assay type: functional, Homo sapiens
LOX IMVI = assay: LOX cell line Proliferation assay; assay type: functional, Homo sapiens
[53] = biological target: 5-hydroxytryptamine receptor 1E (Homo sapiens) (UniProt P28566); details: Compound concentration 10.0 uM
[54] = biological target: D(1A) dopamine receptor (Homo sapiens) (UniProt P21728); details: Compound concentration 10.0 uM
[55] = biological target: T5, GABA-A receptor; anion channel (Rattus norvegicus); details: Compound concentration 10.0 uM; remark: listed apart in the source

T1 sequence (P41595 whole entry): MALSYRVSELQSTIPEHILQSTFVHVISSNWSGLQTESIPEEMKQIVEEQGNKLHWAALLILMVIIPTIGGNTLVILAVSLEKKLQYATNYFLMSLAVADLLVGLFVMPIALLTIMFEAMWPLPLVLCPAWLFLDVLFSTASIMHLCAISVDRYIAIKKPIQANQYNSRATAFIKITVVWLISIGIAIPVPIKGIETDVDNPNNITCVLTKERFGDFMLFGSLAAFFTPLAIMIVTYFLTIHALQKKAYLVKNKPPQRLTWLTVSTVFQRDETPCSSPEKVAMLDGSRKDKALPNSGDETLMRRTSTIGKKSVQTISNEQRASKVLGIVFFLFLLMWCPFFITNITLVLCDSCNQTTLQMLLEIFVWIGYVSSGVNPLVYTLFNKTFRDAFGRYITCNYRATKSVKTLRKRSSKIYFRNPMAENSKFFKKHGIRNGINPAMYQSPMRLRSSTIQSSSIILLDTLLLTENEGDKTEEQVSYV

Cn1c(-c2csc(C3CCN(CC4=NC5N=CC=CC5N4)CC3)n2)nc2ccccc21 (configuration not stated) [BAY-070]
Ki ([1]; read-out: Ki): 1580 nM | Ki ([1]; read-out: pKi (converted)): 1510 nM | Ki ([2]; read-out: Ki): 152 nM | Ki [3]: 1290 nM | inhibition [4]: 10.2% | inhibition [5]: 4.71% | inhibition [6]: -0.96% | inhibition [7]: -4.2% | inhibition [8]: 72% | inhibition [9]: 8.59% | inhibition [10]: 45.1% | inhibition [11]: 16.2% | inhibition [12]: 31.4% | inhibition [13]: 10.1% | inhibition [14]: 44.6% | inhibition [15]: 47.6% | inhibition [16]: 44% | inhibition [17]: 5.35% | inhibition [18]: 7.08% | inhibition [19]: -3.53% | inhibition [20]: -1.09% | inhibition [21]: 9.54% | inhibition [22]: 3.76% | inhibition [23]: 18.1% | inhibition [24]: 0.44% | inhibition [25]: 1.91% | inhibition [26]: -7.57% | inhibition [27]: -9.17% | inhibition [28]: 6.33% | inhibition [29]: 7.64% | inhibition [30]: 27.1% | inhibition [31]: 22% | inhibition [32]: 19.9% | inhibition [33]: 19.9% | inhibition [34]: 23% | inhibition [35]: 43.4% | inhibition [36]: 10.1% | inhibition [37]: 16.1% | inhibition [38]: 14.7% | inhibition [39]: 13.5% | inhibition [40]: 19.5% | inhibition [41]: -6.05% | inhibition (Rattus norvegicus): 13.7% | inhibition [42]: 14.4% | inhibition [43]: 98% | inhibition [44]: 80%

c1ccc2oc(-c3csc(C4CCN(Cc5nc6ncccc6[nH]5)CC4)n3)cc2c1
Ki ([1]; read-out: Ki): 558 nM | Ki ([1]; read-out: pKi (converted)): 550 nM | Ki ([45]; read-out: Ki): 5460 nM | Ki ([45]; read-out: pKi (converted)): 5370 nM | Ki [46]: 5240 nM | Ki [47]: 3500 nM | Ki ([48]; read-out: Ki): 5470 nM | Ki ([48]; read-out: pKi (converted)): 4420 nM | Ki ([2]; read-out: Ki): 1120 nM | Ki ([2]; read-out: pKi (converted)): 1100 nM | Ki [3]: 1180 nM | Cell Proliferation EC50 [49]: 23 nM | Cell Proliferation EC70 [49]: 48 nM | Cell Proliferation EC50 (MKN-1): 34 nM | Cell Proliferation EC70 (MKN-1): 85 nM | Cell Proliferation EC50 [50]: 65 nM | Cell Proliferation EC70 [50]: 104 nM | Cell Proliferation EC50 (LS174T): 43 nM | Cell Proliferation EC70 (LS174T): 109 nM | Cell Proliferation EC50 [51]: 81 nM | Cell Proliferation EC70 [51]: 147 nM | Cell Proliferation EC50 [52]: 66 nM | Cell Proliferation EC70 [52]: 195 nM | Cell Proliferation EC50 (BG-1 cell line): 142 nM | Cell Proliferation EC70 (BG-1 cell line): 207 nM | Cell Proliferation EC50 (Caco-2): 129 nM | Cell Proliferation EC70 (Caco-2): 209 nM | Cell Proliferation EC50 (SK-MEL-28): 75 nM | Cell Proliferation EC70 (SK-MEL-28): 215 nM | Cell Proliferation EC50 (RKO): 153 nM | Cell Proliferation EC70 (RKO): 251 nM | Cell Proliferation EC50 (LOX IMVI): 126 nM | Cell Proliferation EC70 (LOX IMVI): 335 nM | inhibition [4]: 16.4% | inhibition [5]: 16% | inhibition [6]: 16.9% | inhibition [53]: 30.9% | inhibition [7]: 5.87% | inhibition [8]: 74.5% | inhibition [9]: 20.2% | inhibition [10]: 72.1% | inhibition [11]: 19.9% | inhibition [12]: 72.4% | inhibition [13]: 40.9% | inhibition [54]: -2.56% | inhibition [14]: 5.5% | inhibition [15]: 28.6% | inhibition [16]: 16.5% | inhibition [17]: 5.5% | inhibition [18]: 40.3% | inhibition [21]: 22.4% | inhibition [22]: 22% | inhibition [23]: 21.6% | inhibition [55]: 7.9% | inhibition [24]: 37.4% | inhibition [25]: 14.8% | inhibition [26]: -4.94% | inhibition [27]: 2.33% | inhibition [28]: 15.5% | inhibition [29]: 35.7% | inhibition [30]: 32.1% | inhibition [31]: 28.7% | inhibition [32]: 53.4% | inhibition [33]: 20.9% | inhibition [34]: 25.4% | inhibition [35]: 1.7% | inhibition [36]: 54.2% | inhibition [37]: -0.2% | inhibition [38]: -4.61% | inhibition [39]: -7.72% | inhibition [40]: 11.7% | inhibition [41]: 48.3% | inhibition (Rattus norvegicus): 20.2% | inhibition [42]: 9.84% | inhibition [43]: 78.1% | inhibition [44]: 55.4%
